This is an account of results in US20250295668A1, “METHODS FOR INDUCING COLANIC ACID BIOSYNTHESIS” (priority 2024, published 2025).

Test [1] has as its target PBP1a (Escherichia coli, UniProt P02918). To be noted: E. coli, literature; cited from earlier work.
The subject of test [2] is E. coli deletion mutants. Nature of the test: Colanic acid measurement in E. coli deletion mutants. To be noted: low-dose cephaloridine. The class given is cell-based. The protocol: For colanic acid quantification, E. coli Keio mutants and the parental strain BW25113 were cultured overnight at 37° C. in M9 minimum medium [PMID: 28436966]. Bacteria were then removed by centrifugation and filtered for colanic acid measurement.
(§1) The desired bacterial strain was first inoculated and cultured in M9 minimum medium overnight at 37° C. to obtain the seeding culture. The OD 600 was measured, and the seeding bacteria were diluted to OD600=0.02 in M9 minimum medium for another 16 hours. After the incubation, bacterial cultures were collected in 50 mL tubes, spun down at 4,000 g at 4° C. for 30 min, filtered, and 25 mL of supernatant was collected per 50 ml conical tube. Ice-cold 100% ethanol (EtOH) was added to make a final 50% EtOH solution for precipitation, and the mixture was kept at 4° C. overnight. Once precipitation occurred, the liquid was carefully removed after centrifugation at 4,000 g at 4° C. for 50 min. The pellet was washed once with cold 80% EtOH and then air-dried in a hood. The pellet from every 50 mL culture was resuspended in 500 μL distilled H2O. The solution was sonicated for 60 minutes at 37° C., followed by centrifugation at 4000 g at 4° C. for 10 minutes. A 200 μL sample was mixed with 30 μL hydrochloric acid (320331-500 mL, Sigma-Aldrich) and boiled for 2 hours. Subsequently, 60 μL 5M NaOH and 150 μL NaHCO3/NaOH buffer were added to reach a pH of 6-8, calibrated by 1M HCl or NaOH solutions. The fucose quantification assay was then carried out using a K-FUCOSE kit (Megazyme) according to the manufacturer's protocol.
The molecular mechanism behind the induction of colanic acid by low-dose cephaloridine was investigated. It was suspected that regulation of the cps operon was centered on the well-known RCS two-component system. Canonically, the RcsC sensor histidine kinase situated in the inner membrane autophosphorylates in response to environmental cues, then the RcsD phosphotransferase transmits the phosphoryl group to the cytosolic response regulator RcsB, which functions as a transcription factor to up-regulate the cps operon, with RcsA interacting with RcsB to enhance its binding with the promoter, thereby stimulating transcriptional activation (FIG. 4A). To assess the necessity of the RCS system in colanic acid induction by low-dose cephaloridine, the E. coli deletion mutants of rcsA, rcsB, rcsC, and rcsD were treated with cephaloridine and colanic acid production was measured in their respective culture mediums.
Considering β-lactam antibiotics show preferential affinities to various penicillin-binding proteins (PBPs) [PMID: 25733506] [PMID: 1103132], the role of these inner membrane proteins in colanic acid induction upon low-dose cephaloridine treatment was determined. […] (FIG. 5A).
To investigate potential mediation of colanic acid induction by these kinases, E. coli deletion mutants of btsS, glrK, and zraS were treated with low-dose cephaloridine and colanic acid levels in their respective culture mediums were measured. Due to slow growth in the M9 culture medium, the rstB deletion mutant could not be evaluated.

For test [3], the system named is MG1655 E. coli. Nature of the test: Colanic acid production in MG1655 commensal E. coli. The class given is cell-based. To be noted: MG1655, low-dose cephaloridine, 37° C. The method, then:
as §1, with “A 200 μL sample was mixed with 30 μL hydrochloric acid (320331-500 mL, Sigma-Aldrich) and boiled for 2 hours. Subsequently, 60 μL 5M NaOH and 150 μL NaHCO3/NaOH buffer were added to reach a pH of 6-8, calibrated by 1M HCl or NaOH solutions.” left out
MG1655, a human-derived commensal K12 strain, was treated with a low dose of cephaloridine at 37° C., which induced colanic acid production (FIG. 3A). […] The luminal content of mice ileum was harvested after 3 hours of cephaloridine administration and were imaged for fluorescence. […]

Test [4] concerns C. elegans. The test can be described thus: C. elegans lifespan assay on antibiotic-treated E. coli. It is filed as in vivo, Caenorhabditis elegans. The method, then:
For longitudinal assays, E. coli Keio mutants were initially cultivated in M9 minimum medium at 37° C. for 16 hours. Subsequently, bacteria at stationary phase were reinoculated in fresh M9 medium with a low dose of cephaloridine at 37° C. for another 16 hours. A 100 μL aliquot of the bacteria culture was seeded onto each 6-cm NGM plate and maintained at 20° C. Fresh bacteria plates were prepared every other day for transfer to alive worms. Caenorhabditis elegans var. Bristol N2 strain was obtained from the Caenorhabditis Genome Center. The strain was maintained on standard nematode growth medium (NGM) agar plates seeded with corresponding bacteria at 20° C. Age synchronization of C. elegans was achieved by isolating eggs as previously described [PMID: 4858229]. Lifespan assays were performed as previously described [PMID: 25554789]. In brief, age-synchronized C. elegans at the L1 stage were seeded onto designated bacteria lawns. Fresh bacteria-containing plates were made every other day for live C. elegans transfer. Once reaching adulthood as Day 0, worms were transferred to new bacteria plates. Death events were scored upon each transfer. Bagged worms and vulva protruding worms were censored throughout the analysis. Each assay contained 80-100 animals with 30-40 animals per 6 cm plate.

Values joined by “and” are separate entries in the source; they are usually repeats but may differ in a detail not shown here. Identical values can stand only once.

Chain of PBP1a (P02918 whole entry): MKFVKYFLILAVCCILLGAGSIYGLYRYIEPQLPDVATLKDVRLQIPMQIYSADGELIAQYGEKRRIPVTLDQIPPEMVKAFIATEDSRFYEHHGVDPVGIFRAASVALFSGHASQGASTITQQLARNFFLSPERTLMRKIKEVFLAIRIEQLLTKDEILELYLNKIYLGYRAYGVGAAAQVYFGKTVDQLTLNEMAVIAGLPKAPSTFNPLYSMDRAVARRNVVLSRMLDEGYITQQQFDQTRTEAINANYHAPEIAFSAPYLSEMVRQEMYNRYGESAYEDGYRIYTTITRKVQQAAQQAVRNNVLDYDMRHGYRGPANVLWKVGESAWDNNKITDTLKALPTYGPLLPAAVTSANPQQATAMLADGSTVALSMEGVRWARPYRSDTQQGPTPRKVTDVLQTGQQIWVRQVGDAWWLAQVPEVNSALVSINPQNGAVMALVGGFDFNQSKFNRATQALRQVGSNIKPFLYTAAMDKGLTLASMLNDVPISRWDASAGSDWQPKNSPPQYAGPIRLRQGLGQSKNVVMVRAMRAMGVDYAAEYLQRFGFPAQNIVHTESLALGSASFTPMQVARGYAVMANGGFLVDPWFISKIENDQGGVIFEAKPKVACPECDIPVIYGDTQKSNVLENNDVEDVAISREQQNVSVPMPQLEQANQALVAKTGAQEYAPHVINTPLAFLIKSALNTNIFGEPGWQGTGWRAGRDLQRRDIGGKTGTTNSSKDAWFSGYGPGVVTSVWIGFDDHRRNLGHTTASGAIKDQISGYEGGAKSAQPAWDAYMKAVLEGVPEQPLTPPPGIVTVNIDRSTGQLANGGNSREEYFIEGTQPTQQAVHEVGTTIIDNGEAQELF

For `O=C(Cc1cccs1)N[C@@H]1C(=O)N2C(C(=O)[O-])=C(C[n+]3ccccc3)CS[C@H]12` [cephaloridine], the “binding to PBP1a” value in test [1] is “primarily binds to PBP1a”. The “amount of colanic acid vs treated wild-type strain” value in test [2] (DacB deletion mutant (PBP4)) was “even greater amount of colanic acid than the wild-type strain”. Besides, the “induction of colanic acid” value is recorded as “did induce colanic acid production” in test [2] (DacB deletion mutant (PBP4)); “failed to induce colanic acid” in test [2] (mrcA deletion mutant (PBP1a)); “completely abolished the induction of colanic acid” in test [2] (rcsA deletion mutant); “completely abolished the induction of colanic acid” in test [2] (rcsB deletion mutant); “no impact on the induction of colanic acid” in test [2] (rcsC deletion mutant); “no impact on the induction of colanic acid” in test [2] (rcsD deletion mutant). In test [2] (zraS deletion mutant), the “induction of colanic acid” value is recorded as “suppressed the induction of colanic acid”. Further, the “colanic acid production increase” value in test [3] turned out to be 3.2 fold. Moreover, the “C. elegans lifespan extension vs vehicle” value in test [4] (MG1655 E. coli treated with 1.8 μg/mL) is 13% and 13.3%; in test [4] (wildtype E. coli treated with 1.8 μg/mL) it was 14%. Further, the values for the C. elegans lifespan entry in test [4] (cephaloridine-treated rcsA deletion mutant E. coli) and in test [4] (cephaloridine-treated rcsD deletion mutant E. coli) were “failed to extend lifespan” and “effectively promoted longevity”, respectively.
